From patent US12643887B2, “Heterocyclic derivatives with cardiomyocyte proliferation activity for treatment of heart diseases” (Tongji University, priority 2019, dated 2026)
Like-named read-outs stand apart in the source and are kept apart here.

Assays:
human CIT = target: T1, human CIT (Homo sapiens, UniProt O14578); experiment: CIT enzyme assay (ADP-Glo); format: biochemical
T1 construct: Recombinant human CIT (1-499); GST (N); purchased SignalChem C52-11G; host or cells: Sf9 insect cells
Experimental: The ability of compounds to inhibit human CIT kinase activities was determined using a commercially available ADP-Glo™ Kinase Assay kit (Promega, Cat #V9102) according to the manufacturer's protocol.
(§1) Recombinant human CIT (1-499) (expressed in Sf9 insect cells with an N-terminal GST tag) was purchased from SignalChem (Cat #C52-11G). Recombinant full length human MBP (expressed in E. Coli cells with an N-terminal GST tag) was purchased from SignalChem (Cat #M42-54G). This assay, run in a 384-well plate format, is a generic method for measuring kinase activities using an ADP-Glo Kinase Assay Kit. The basic assay procedure involves two steps: (1) Enzymatic step: inhibitors are incubated with the kinase and then ATP (included in the ADP-Glo Kinase Assay Kit) and the MBP protein are added to start the enzymatic reaction; (2) Detection step: after the kinase reaction, first ADP-Glo™ Reagent is added to terminate the kinase reaction and deplete the remaining ATP. Second, the Kinase Detection Reagent is added to simultaneously convert ADP to ATP and allow the newly synthesized ATP to be measured using a luciferase/luciferin reaction. The light generated is measured using a luminometer.
(§2) Briefly, CIT (20 nM) in the enzymatic buffer solutions (40 mM Tris, pH 7.5, 20 mM MgCl2, 0.1 mg/ml BSA, 50 μM DTT) were mixed with various concentrations of inhibitors (dissolved in 100% DMSO). These solutions were incubated for 30 minutes at 25° C., and subsequently a mixture of substrate peptide and ATP was added with the final peptide and ATP concentrations at 0.05 mg/ml and 5 μM, respectively. The final reaction mixture of enzyme-substrate-ATP-compound was incubated for 90 minutes at 25° C.
(§3) Afterwards ADP-Glo™ Reagent was added and the mixture was incubated at 25° C. for 60 minutes. Then Kinase Detection Reagent was added, and the final mixture was incubated at 25° C. for 60 minutes. The luminescence signal of the final solution was measured on an Envision instrument (PerkinElmer). The percent (%) inhibition at each concentration of a compound is calculated relative to the luminescence signal in the Max and Min control wells contained within each assay plate. […] The concentrations and percent inhibition values for a test compound are plotted and the concentration of the compound required to achieve 50% inhibition (IC50) is determined with a four-parameter logistic dose response equation.

human CK2a2 (CSNK2a2) = target: T2, human CK2a2 (CSNK2a2) (Homo sapiens, UniProt P19784); experiment: CK2a2 (CSNK2a2) enzyme assay (ADP-Glo); format: biochemical
T2 construct: Recombinant human CK2a2 (CSNK2a2) (full length); GST (N); purchased SignalChem C71-10G; host or cells: Sf9 insect cells
T2 sequence (P19784 whole entry): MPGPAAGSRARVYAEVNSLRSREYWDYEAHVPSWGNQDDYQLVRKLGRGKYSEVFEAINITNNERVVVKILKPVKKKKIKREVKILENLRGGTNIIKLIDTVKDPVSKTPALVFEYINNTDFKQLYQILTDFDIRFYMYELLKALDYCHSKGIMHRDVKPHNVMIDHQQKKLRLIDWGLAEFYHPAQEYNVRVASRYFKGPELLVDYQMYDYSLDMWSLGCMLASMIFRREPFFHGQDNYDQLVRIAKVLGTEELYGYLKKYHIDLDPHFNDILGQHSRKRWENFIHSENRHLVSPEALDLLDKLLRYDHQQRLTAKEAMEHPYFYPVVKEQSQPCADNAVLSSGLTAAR
Experimental: 8. CK2a2 (CSNK2a2) Enzyme Assay
The ability of compounds to inhibit human CK2a2 (CSNK2a2) kinase activities was determined using a commercially available ADP-Glo™ Kinase Assay kit (Promega, Cat #V9102) according to the manufacturer's protocol.
as §1, with “CK2a2 (CSNK2a2) (full length)” for “CIT (1-499)”, “#C71-10G). CK2 substrate (sequence: […])” for “#C52-11G). Recombinant full length human MBP (expressed in E. Coli cells with an N-terminal GST tag)”, “#C08-58).” for “#M42-54G).”
as §2, with “Briefly, CK2a2 (CSNK2a2) (7” for “Briefly, CIT (20”, “at 0.04” for “at 0.05”, “and 15” for “and 5”
as §3

[1] = ADP-Glo, ATP 5 μM, read-out: CIT IC50
[2] = ADP-Glo, ATP 15 μM, read-out: CK2 alpha 2 IC50

T1 sequence (O14578 1-499): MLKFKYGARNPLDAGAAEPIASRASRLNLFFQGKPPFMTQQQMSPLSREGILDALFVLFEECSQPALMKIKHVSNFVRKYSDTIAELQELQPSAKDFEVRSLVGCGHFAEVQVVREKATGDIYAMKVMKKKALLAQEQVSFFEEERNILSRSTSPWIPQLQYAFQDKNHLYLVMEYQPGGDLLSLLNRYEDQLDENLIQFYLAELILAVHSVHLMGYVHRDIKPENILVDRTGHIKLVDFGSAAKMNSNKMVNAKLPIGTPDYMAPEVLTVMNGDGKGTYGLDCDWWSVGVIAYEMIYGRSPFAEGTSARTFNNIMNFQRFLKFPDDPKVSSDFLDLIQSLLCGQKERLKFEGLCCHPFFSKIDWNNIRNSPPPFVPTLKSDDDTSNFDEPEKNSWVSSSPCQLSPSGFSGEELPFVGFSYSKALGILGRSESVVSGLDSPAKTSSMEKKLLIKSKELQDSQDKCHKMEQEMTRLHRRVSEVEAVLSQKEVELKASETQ

| SMILES | IC50 (human CIT; [1]) | IC50 (human CK2a2 (CSNK2a2); [2]) | IC50 (human CIT) | IC50 (human CK2a2 (CSNK2a2)) |
| --- | --- | --- | --- | --- |
| CCN(C1=N/C(=C\c2ccc3c(c2)OCO3)C(=O)N1)c1ccccc1 [Example 4, (Z)-5-(benzo[d][1,3]dioxol-5-ylmethylene)-2-(ethyl(phenyl)amino)-3,5-dihydro-4H-imidazol-4-one] | > 10000 nM | 100 to 1000 nM | – | – |
| CC(=O)N(C1=N/C(=C\c2ccc3c(c2)OCO3)C(=O)N1)c1ccccc1 [Example 5, (Z)—N-(4-(benzo[d][1,3]dioxol-5-ylmethylene)-5-oxo-4,5-dihydro-1H-imidazol-2-yl)-N-phenylacetamide] | – | – | > 10000 nM | < 100 nM |
| Cc1nc2ccc(NC3=N/C(=C\c4ccc5ncsc5c4)C(=O)N3)cc2s1 [Example 90, (Z)-5-(benzo[d]thiazol-6-ylmethylene)-2-((2-methylbenzo[d]thiazol-6-yl)amino)-3,5-dihydro-4H-imidazol-4-one] | > 10000 nM | < 100 nM | – | – |
| Nc1ccc(NC2=N/C(=C\c3ccc4ncsc4c3)C(=O)N2)cc1 [Example 98, (Z)-2-((4-aminophenyl)amino)-5-(benzo[d]thiazol-6-ylmethylene)-3,5-dihydro-4H-imidazol-4-one] | 100 to 1000 nM | < 100 nM | – | – |
